Results taken from US8758816B2, “Compositions comprising azelastine and methods of use thereof” (priority 2004, dated 2014).

System: patients with seasonal allergic rhinitis (SAR)
Assay: MP 428 two-week randomized double-blind study: Total Nasal Symptom Score (TNSS), change from baseline
Format: in vivo, human
Parameters: key to Change from Baseline in AM TNSS, Mean / Change from Baseline in AM TNSS, LS Mean / Change from Baseline in AM TNSS, Median: TNSS sum of 4 symptoms each 0-3 (0=none, 3=severe); change from baseline
Conditions: for AUC of Change from Baseline in TNSS (AM and PM Combined), Mean / AUC of Change from Baseline in TNSS (AM and PM Combined), Median / AUC of Change from Baseline in TNSS (AM and PM Combined), LS Mean: Day 1 to Day 14; for AUC of Change from Baseline in TNSS (AM and PM Combined), LS Mean: ANCOVA
Description: A two-week, randomized, double-blind study, which evaluated the effects of the co-administration of ASTELIN® (azelastine hydrochloride (HCl)) and FLONASE® (fluticasone propionate) compared to either product alone in patients with seasonal allergic rhinitis (SAR) was conducted during the 2006 Texas mountain cedar season. After a 5-day placebo lead-in period, 151 patients with moderate-to-severe allergic rhinitis symptoms were randomized to either: (1) (49 total patients) ASTELIN® (azelastine hydrochloride (HCl)) plus placebo saline nasal spray 2 sprays per nostril, 15 minutes apart, twice daily (AM & PM); (2) (50 total patients) FLONASE® (fluticasone propionate) plus placebo saline nasal spray, 2 sprays per nostril, 15 minutes apart, once daily (AM) and two sessions of placebo saline nasal spray, 2 sprays per nostril, 15 minutes apart (PM); or (3) (52 total patients) the co-administration of ASTELIN® (azelastine hydrochloride (HCl)) 2 sprays per nostril plus FLONASE® (fluticasone propionate) 2 sprays per nostril (AM), 15 minutes apart, and ASTELIN® (azelastine hydrochloride (HCl)) 2 sprays per nostril plus placebo saline nasal spray, 15 minutes apart, (PM) for a 2-week double-blind treatment period.
The primary efficacy variable was the change from baseline in the Total Nasal Symptom Score (TNSS), which comprised sneezing, itchy nose, runny nose, and nasal congestion (individual symptoms scores were assigned a value between 0 and 3, where 0=no symptoms and 3=severe symptoms). This study was not statistically designed to assess the differences between ASTELIN® and FLONASE®.

[1] = Day 12, Per-Protocol Population
[2] = Day 13, Intent-to-Treat Population
[3] = Day 13, Per-Protocol Population
[4] = Day 14, Intent-to-Treat Population
[5] = Day 14, Per-Protocol Population
[6] = Overall (Day 2 to Day 14), Intent-to-Treat Population
[7] = Overall (Day 2 to Day 14), Per-Protocol Population

## CCC(=O)O[C@]1(C(=O)SCF)[C@H](C)C[C@H]2[C@@H]3C[C@H](F)C4=CC(=O)C=C[C@]4(C)[C@@]3(F)[C@@H](O)C[C@@]21C [Fluticasone, fluticasone propionate]
Day 12, Intent-to-Treat Population
  Percent Change from Baseline in PM TNSS, Median: −31.82%
Day 12, Intent-to-Treat Population, ANCOVA model
  Change from Baseline in AM and PM Combined TNSS, LS Mean: −6.12
[1]
  Change from Baseline in AM and PM Combined TNSS, LS Mean: −6.16
  Change from Baseline in AM and PM Combined TNSS, Mean: −6.20
  Change from Baseline in AM and PM Combined TNSS, Median: −5.17
  Percent Change from Baseline in AM and PM Combined TNSS, LS Mean: −31.45%
  Percent Change from Baseline in AM and PM Combined TNSS, Mean: −31.50%
  Percent Change from Baseline in AM and PM Combined TNSS, Median: −27.78%
[2]
  Change from Baseline in AM TNSS, LS Mean: −3.38
  Change from Baseline in AM TNSS, Mean: −3.32
  Change from Baseline in AM TNSS, Median: −3.00
  Change from Baseline in AM and PM Combined TNSS, Mean: −6.83
  Change from Baseline in AM and PM Combined TNSS, Median: −6.20
  Change from Baseline in PM TNSS, LS Mean: −3.57
  Change from Baseline in PM TNSS, Mean: −3.51
  Change from Baseline in PM TNSS, Median: −3.00
  Percent Change from Baseline in AM TNSS, LS Mean: −34.62%
  Percent Change from Baseline in AM TNSS, Mean: −34.03%
  Percent Change from Baseline in AM TNSS, Median: −28.36%
  Percent Change from Baseline in AM and PM Combined TNSS, LS Mean: −35.63%
  Percent Change from Baseline in AM and PM Combined TNSS, Mean: −34.97%
  Percent Change from Baseline in AM and PM Combined TNSS, Median: −30.43%
  Percent Change from Baseline in PM TNSS, LS Mean: −36.56%
  Percent Change from Baseline in PM TNSS, Mean: −35.75%
  Percent Change from Baseline in PM TNSS, Median: −33.33%
Day 13, Intent-to-Treat Population, ANCOVA model
  Change from Baseline in AM and PM Combined TNSS, LS Mean: −6.95
[3]
  Change from Baseline in AM and PM Combined TNSS, LS Mean: −7.03
  Change from Baseline in AM and PM Combined TNSS, Mean: −7.01
  Change from Baseline in AM and PM Combined TNSS, Median: −6.50
  Percent Change from Baseline in AM and PM Combined TNSS, LS Mean: −35.99%
  Percent Change from Baseline in AM and PM Combined TNSS, Mean: −35.73%
  Percent Change from Baseline in AM and PM Combined TNSS, Median: −30.43%
[4]
  Change from Baseline in AM TNSS, LS Mean: −3.33
  Change from Baseline in AM TNSS, Mean: −3.28
  Change from Baseline in AM TNSS, Median: −3.00
  Change from Baseline in AM and PM Combined TNSS, Mean: −6.91
  Change from Baseline in AM and PM Combined TNSS, Median: −5.85
  Change from Baseline in PM TNSS, LS Mean: −3.70
  Change from Baseline in PM TNSS, Mean: −3.63
  Change from Baseline in PM TNSS, Median: −3.00
  Percent Change from Baseline in AM TNSS, LS Mean: −33.54%
  Percent Change from Baseline in AM TNSS, Mean: −33.12%
  Percent Change from Baseline in AM TNSS, Median: −31.03%
  Percent Change from Baseline in AM and PM Combined TNSS, LS Mean: −35.62%
  Percent Change from Baseline in AM and PM Combined TNSS, Mean: −35.00%
  Percent Change from Baseline in AM and PM Combined TNSS, Median: −28.71%
  Percent Change from Baseline in PM TNSS, LS Mean: −37.70%
  Percent Change from Baseline in PM TNSS, Mean: −36.79%
  Percent Change from Baseline in PM TNSS, Median: −33.33%
Day 14, Intent-to-Treat Population, ANCOVA model
  Change from Baseline in AM and PM Combined TNSS, LS Mean: −7.02
[5]
  Change from Baseline in AM and PM Combined TNSS, LS Mean: −7.15
  Change from Baseline in AM and PM Combined TNSS, Mean: −7.14
  Change from Baseline in AM and PM Combined TNSS, Median: −6.00
  Percent Change from Baseline in AM and PM Combined TNSS, LS Mean: −36.26%
  Percent Change from Baseline in AM and PM Combined TNSS, Mean: −36.03%
  Percent Change from Baseline in AM and PM Combined TNSS, Median: −34.31%
Intent-to-Treat Population
  AUC of Change from Baseline in TNSS (AM and PM Combined), Mean: −64.53
  AUC of Change from Baseline in TNSS (AM and PM Combined), Median: −51.13
  AUC of Change from Baseline in TNSS (AM and PM Combined), LS Mean: −65.00
[6]
  Change from Baseline in AM TNSS, LS Mean: −2.55
  Change from Baseline in AM TNSS, Mean: −2.57
  Change from Baseline in AM TNSS, Median: −2.14
  Change from Baseline in AM and PM Combined TNSS, Mean: −5.06
  Change from Baseline in AM and PM Combined TNSS, Median: −3.91
  Change from Baseline in PM TNSS, LS Mean: −2.71
  Change from Baseline in PM TNSS, Mean: −2.43
  Change from Baseline in PM TNSS, Median: −1.86
  Percent Change from Baseline in AM TNSS, LS Mean: −26.39%
  Percent Change from Baseline in AM TNSS, Mean: −26.49%
  Percent Change from Baseline in AM TNSS, Median: −23.89%
  Percent Change from Baseline in AM and PM Combined TNSS, LS Mean: −27.13%
  Percent Change from Baseline in AM and PM Combined TNSS, Mean: −26.12%
  Percent Change from Baseline in AM and PM Combined TNSS, Median: −21.93%
  Percent Change from Baseline in PM TNSS, LS Mean: −27.75%
  Percent Change from Baseline in PM TNSS, Mean: −24.98%
  Percent Change from Baseline in PM TNSS, Median: −20.34%
Overall (Day 2 to Day 14), Intent-to-Treat Population, ANCOVA model
  Change from Baseline in AM and PM Combined TNSS, LS Mean: −5.24
[7]
  Change from Baseline in AM and PM Combined TNSS, LS Mean: −5.24
  Change from Baseline in AM and PM Combined TNSS, Mean: −5.14
  Change from Baseline in AM and PM Combined TNSS, Median: −3.91
  Percent Change from Baseline in AM and PM Combined TNSS, LS Mean: −27.12%
  Percent Change from Baseline in AM and PM Combined TNSS, Mean: −26.46%
  Percent Change from Baseline in AM and PM Combined TNSS, Median: −21.93%
Per-Protocol Population
  AUC of Change from Baseline in TNSS (AM and PM Combined), Mean: −65.66
  AUC of Change from Baseline in TNSS (AM and PM Combined), Median: −51.13
  AUC of Change from Baseline in TNSS (AM and PM Combined), LS Mean: −65.38
